Measurements from patent US20260216348A1, “IRAK DEGRADATION AGENT AND USE THEREOF” (Increland, priority 2023, published 2026).

How the values were obtained:
[1] = molecular target: T1, IRAK4 (Homo sapiens, UniProt Q9NWZ3); experiment: IRAK4 protein degradation in THP1 cells (Western blot); assay type: cell-based; conditions: THP-1 cells, 24 h
T1 construct: Effect of the Compounds on IRAK4 Protein Degradation in THP1 Cells; endogenous in cells; host or cells: THP-1 cells
T1 sequence (Q9NWZ3 1-460): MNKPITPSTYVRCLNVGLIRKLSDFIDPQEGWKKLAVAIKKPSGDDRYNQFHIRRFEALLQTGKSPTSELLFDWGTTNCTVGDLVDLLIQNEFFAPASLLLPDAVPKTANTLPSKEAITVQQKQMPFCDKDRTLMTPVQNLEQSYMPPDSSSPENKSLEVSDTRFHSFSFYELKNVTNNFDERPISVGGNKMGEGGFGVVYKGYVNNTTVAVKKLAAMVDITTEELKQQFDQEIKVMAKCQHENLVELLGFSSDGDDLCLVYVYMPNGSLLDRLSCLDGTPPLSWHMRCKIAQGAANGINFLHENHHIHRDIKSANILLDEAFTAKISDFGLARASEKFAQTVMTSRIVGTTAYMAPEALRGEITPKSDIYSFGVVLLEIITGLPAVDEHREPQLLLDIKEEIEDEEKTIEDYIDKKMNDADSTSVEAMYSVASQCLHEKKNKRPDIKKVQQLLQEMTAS
Experimental: THP-1 cells were seeded into a 96-well cell culture plate, with 2×10^5 cells and 90 μL of culture medium per well. The cell culture plate was cultured in an incubator with 5% CO2 at 37° C. overnight. The compound was dissolved in DMSO to prepare a stock solution, which was serially diluted into a series of working solutions with a 5-fold concentration gradient using the culture medium and then added to the aforementioned 96-well plate at 10 μL per well. The cell culture plate was further incubated for 24 h in a 5% CO2 incubator at 37° C. After incubation, the 96-well plate was centrifuged and the supernatant was discarded, followed by adding 40 μL of cell lysis buffer containing […]/phosphatase inhibitors to each well for sufficient lysis on an ice bath. Protein quantification was performed using the BCA protein quantification kit, followed by the preparation of Western blot samples. […] After electrophoresis, protein transfer was performed using a PVDF membrane under ice bath conditions for 1 h. After the transfer was completed, the PVDF membrane was blocked with gentle shaking in 5% skim milk at room temperature for 1 h. After blocking, the PVDF membrane was incubated with the primary antibody overnight with gentle shaking at 4° C. The PVDF membrane was washed 3 times with TBST, then the secondary antibody was added and incubated for 1 h with gentle shaking at room temperature, followed by washing of the PVDF membrane with TBST for 3 times. After the washes were completed, the chemiluminescent substrate was added; the PVDF membrane was scanned using a Clinx imager, semi-quantitative analysis was performed with ImageJ software, and the DC50 was calculated using GraphPad Prism 8.0.

[2] = system: LPS/IL-1β-induced IL-6 secretion in human peripheral blood mononuclear cells (PBMCs); experiment: Inhibition of LPS/IL-1β-induced IL-6 secretion in human PBMCs (IL-6 ELISA); assay type: cell-based; conditions: PBMC, LPS 10 ng/mL + IL-1β 20 ng/mL, 24 h pre-incubation, 20 h stimulation
Experimental: This experiment was carried out in RPMI 1640 medium containing 10% FBS and 1% penicillin/streptomycin, with each of the compounds at an initial test concentration of 1 μM.
The compound was dissolved in DMSO to prepare a stock solution, which was serially diluted into some working solutions with a 5-fold concentration gradient using the culture medium and then added to a 96-well plate at 10 μL per well. PBMCs (Batch No.: P122101102C; Milecell Biotechnology Inc.) were counted and diluted to a cell concentration of about 1.3×10^6 cells/mL, and then added to the aforementioned compound-containing 96-well plate at 150 μL per well. The system was mixed well and incubated in a 5% CO2 incubator at 37° C. for 24 h. Then 5 μL of LPS (final concentration: 10 ng/mL) and 5 μL of IL-1β (final concentration: 20 ng/mL) were added to each well, respectively, and the culture was continued for 20 h in a 5% CO2 incubator at 37° C. After incubation, the 96-well plate was centrifuged at 2000 rpm for 4 min. The supernatant was collected and diluted 200-fold, then detected using an IL-6 ELISA kit. The OD450 values were read, and converted to IL-6 concentrations based on a standard curve. The dose-response curves were fitted using GraphPad 8.0 to calculate the IC50 values.

| Compound | DC50 [1] | IC50 [2] |
| --- | --- | --- |
| CN(C)c1cc2nn([C@H]3CC[C@H](CN4CC[C@@H](n5cc6cc(C7CCC(=O)NC7=O)ccc6n5)[C@@H](F)C4)CC3)cc2cc1NC(=O)c1cnn2cccnc12 (stereo partly shown) [TM-156] | 0.32 nM | 1.17 nM |
| CN(C)c1cc2nn(C3CCN(C[C@H]4CC[C@H](n5cc6ccc(C7CCC(=O)NC7=O)cc6n5)CC4)CC3)cc2cc1NC(=O)c1cnn2cccnc12 (stereo partly shown) [TM-5] | 4.62 nM | 0.26 nM |
| CN(C)c1cc2nn([C@H]3CC[C@H](CN4CC[C@H](n5cc6ccc(N7CCC(=O)NC7=O)cc6n5)[C@@H](F)C4)CC3)cc2cc1NC(=O)c1cnn2cccnc12 [TM-31] | 4.06 nM | 3.29 nM |
| CN(C)c1cc2nn([C@H]3CC[C@H](CN4CCCN(c5nc6cc(N7CCC(=O)NC7=O)ccc6s5)CC4)CC3)cc2cc1NC(=O)c1cnn2cccnc12 [TM-59] | 9.64 nM | 10.9 nM |
| CN(C)c1cc2nn([C@H]3CC[C@H](CN4CCC(N5Cc6ccc(N7CCC(=O)NC7=O)cc6C5=O)CC4)CC3)cc2cc1NC(=O)c1cnn2cccnc12 [TM-143] | 135 nM | 11.9 nM |
| CN(C)c1cc2nn([C@H]3CC[C@H](CN4CC[C@H](n5cc6ccc(N7CCC(=O)NC7=O)cc6n5)[C@H](F)C4)CC3)cc2cc1NC(=O)c1cnn2cccnc12 [TM-32] | 1.4 nM | 1.21 nM |
| CN(C)c1cc2nn([C@H]3CC[C@H](CN4CC5(CCN(c6nc7ccc(N8CCC(=O)NC8=O)cc7s6)CC5)C4)CC3)cc2cc1NC(=O)c1cnn2cccnc12 [TM-67] | 19.9 nM | 4.01 nM |
| CN(C)c1cc2nn([C@H]3CC[C@H](CN4CC[C@H](n5cc6cc(C7CCC(=O)NC7=O)ccc6n5)[C@H](F)C4)CC3)cc2cc1NC(=O)c1cnn2cccnc12 (stereo partly shown) [TM-155] | 0.31 nM | 1 nM |
| O=C1CCN(c2ccc3cn(C4CCN(C[C@H]5CC[C@H](n6cc7cc(NC(=O)c8cnn9cccnc89)c(N8CCOCC8)cc7n6)CC5)CC4)nc3c2)C(=O)N1 [TM-43] | 4.31 nM | 8.92 nM |
| CN(C)c1cc2nn([C@H]3CC[C@H](CN4CC[C@H](n5cc6cc(N7CCC(=O)NC7=O)ccc6n5)[C@H](F)C4)CC3)cc2cc1NC(=O)c1cnn2cccnc12 [TM-18] | 1.2 nM | 3.72 nM |
| CN(C)c1cc2nn([C@H]3CC[C@H](CN4CC[C@H](n5cc6ccc(C7CCC(=O)NC7=O)cc6n5)[C@H](F)C4)CC3)cc2cc1NC(=O)c1cnn2cccnc12 (stereo partly shown) [TM-153] | 0.79 nM | 6.79 nM |
| CN(C)c1cc2nn([C@H]3CC[C@H](CN4CC[C@H](n5cc6cc(N7CCC(=O)NC7=O)c(F)cc6n5)[C@@H](F)C4)CC3)cc2cc1NC(=O)c1cnn2cccnc12 [TM-131] | 0.81 nM | 5.07 nM |
| CN(C)c1cc2nn([C@H]3CC[C@H](CN4CC[C@H](n5cc6cc(N7CCC(=O)NC7=O)c(F)cc6n5)[C@H](F)C4)CC3)cc2cc1NC(=O)c1cnn2cccnc12 [TM-130] | 4.26 nM | 5.12 nM |
| CN(C)c1cc2nn([C@H]3CC[C@H](CN4CC[C@@H](n5cc6ccc(C7CCC(=O)NC7=O)cc6n5)[C@@H](F)C4)CC3)cc2cc1NC(=O)c1cnn2cccnc12 (stereo partly shown) [TM-154] | 1.27 nM | 1.45 nM |
| CN(C)c1cc2nn([C@H]3CC[C@H](CN4CC[C@@H](n5cc6ccc(N7CCC(=O)NC7=O)cc6n5)[C@@H](F)C4)CC3)cc2cc1NC(=O)c1cnn2cccnc12 [TM-29] | 1.13 nM | 0.88 nM |
| CN(C)c1cc2nn([C@H]3CC[C@H](CN4CC[C@@H](n5cc6cc(F)c(C7CCC(=O)NC7=O)cc6n5)[C@@H](F)C4)CC3)cc2cc1NC(=O)c1cnn2cccnc12 (stereo partly shown) [TM-139] | < 1 nM | 4.35 nM |
| CN(C)c1cc2nn([C@H]3CC[C@H](CN4CC5(CCN(c6nc7ccc(C8CCC(=O)NC8=O)cn7n6)CC5)C4)CC3)cc2cc1NC(=O)c1cnn2cccnc12 (stereo partly shown) [TM-251] | 18.1 nM | 2.19 nM |

| Compound | DC50 [1] | IC50 [2] |
| --- | --- | --- |
| CN(C)c1cc2nn([C@H]3CC[C@H](CN4CCN(c5nc6cc(C7CCC(=O)NC7=O)ccc6o5)CC4)CC3)cc2cc1NC(=O)c1cnn2cccnc12 (stereo partly shown) [TM-106] | 3.82 nM | 2.52 nM |
| CN(C)c1cc2nn([C@H]3CC[C@H](CN4CC[C@@H](n5cc6ccc(N7CCC(=O)NC7=O)cc6n5)[C@H](F)C4)CC3)cc2cc1NC(=O)c1cnn2cccnc12 [TM-30] | 1.33 nM | 1.05 nM |
| CN(C)c1cc2nn(C3CCN(C[C@H]4CC[C@H](n5cc6cc(C7CCC(=O)NC7=O)ccc6n5)CC4)CC3)cc2cc1NC(=O)c1cnn2cccnc12 (stereo partly shown) [TM-7] | 3.73 nM | 0.18 nM |
| C[C@H]1CN(C[C@H]2CC[C@H](n3cc4cc(NC(=O)c5cnn6cccnc56)c(N(C)C)cc4n3)CC2)CC[C@@H]1n1cc2ccc(C3CCC(=O)NC3=O)cc2n1 (stereo partly shown) [TM-157] | 1.12 nM | 1.46 nM |
| CN(C)c1cc2nn([C@H]3CC[C@H](CN4CC[C@@H](n5cc6cc(N7CCC(=O)NC7=O)ccc6n5)[C@H](F)C4)CC3)cc2cc1NC(=O)c1cnn2cccnc12 [TM-16] | 0.41 nM | 4.59 nM |
| CN(C)c1cc2nn([C@H]3CC[C@H](CN4CC[C@@H](n5cc6cc(N7CCC(=O)NC7=O)ccc6n5)[C@@H](F)C4)CC3)cc2cc1NC(=O)c1cnn2cccnc12 [TM-15] | 1.41 nM | 4 nM |
| CN(C)c1cc2nn([C@H]3CC[C@H](CN4CC[C@H](n5cc6ccc(C7CCC(=O)NC7=O)cc6n5)[C@@H](F)C4)CC3)cc2cc1NC(=O)c1cnn2cccnc12 (stereo partly shown) [TM-151] | 1.66 nM | 7.13 nM |
| CN(C)c1cc2nn([C@H]3CC[C@H](CN4CC[C@@H](n5cc6cc(N7CCC(=O)NC7=O)c(F)cc6n5)[C@H](F)C4)CC3)cc2cc1NC(=O)c1cnn2cccnc12 [TM-41] | < 1 nM | 3.89 nM |
| CN(C)c1cc2nn([C@H]3CC[C@H](CN4CC5(CC(n6cc7ccc(N8CCC(=O)NC8=O)cc7n6)C5)C4)CC3)cc2cc1NC(=O)c1cnn2cccnc12 [TM-215] | 0.95 nM |  |
| CN(C)c1cc2nn([C@H]3CC[C@H](CN4CCC5(CC4)C[C@@H](n4cc6cc(F)c(C7CCC(=O)NC7=O)cc6n4)CO5)CC3)cc2cc1NC(=O)c1cnn2cccnc12 (stereo partly shown) [TM-140] | 13.9 nM |  |
| CN(C)c1cc2nn([C@H]3CC[C@H](CN4CC[C@H](F)[C@@H](n5cc6cc(N7CCC(=O)NC7=O)ccc6n5)C4)CC3)cc2cc1NC(=O)c1cnn2cccnc12 [TM-214] | 1.21 nM |  |
| CN(C)c1cc2nn(C3CCC(CN4CCC[C@H](n5cc6cc(N7CCC(=O)NC7=O)ccc6n5)C4)CC3)cc2cc1NC(=O)c1cnn2cccnc12 (stereo partly shown) [TM-204] | 1.69 nM |  |
| CN(C)c1cc2nn([C@H]3CC[C@H](CN4CCC(n5cc6cc(F)c(N7CCC(=O)NC7=O)cc6n5)CC4)CC3)cc2cc1NC(=O)c1cnn2cccnc12 [TM-10] | 4 nM | 1.34 nM |
| C[C@@H]1CN(C[C@H]2CC[C@H](n3cc4cc(NC(=O)c5cnn6cccnc56)c(N(C)C)cc4n3)CC2)CC[C@H]1n1cc2ccc(C3CCC(=O)NC3=O)cc2n1 (stereo partly shown) [TM-142] | 0.77 nM | 0.88 nM |
| CN(C)c1cc2nn([C@H]3CC[C@H](CN4CCC(c5nc6cc(C7CCC(=O)NC7=O)c(F)cc6o5)CC4)CC3)cc2cc1NC(=O)c1cnn2cccnc12 (stereo partly shown) [TM-147] | 11 nM |  |
| CN(C)c1cc2nn([C@H]3CC[C@H](CN4C[C@@H]5[C@H](C4)[C@H]5n4cc5ccc(N6CCC(=O)NC6=O)cc5n4)CC3)cc2cc1NC(=O)c1cnn2cccnc12 [TM-182] | 3.82 nM |  |
| CN(C)c1cc2nn([C@H]3CC[C@H](CN4CCC(c5nc6ccc(N7CCC(=O)NC7=O)cc6o5)CC4)CC3)cc2cc1NC(=O)c1cnn2cccnc12 [TM-186] | 0.98 nM |  |
